Reference: article PMC7146544, “Dual Plasmepsin-Targeting Antimalarial Agents Disrupt Multiple Stages of the Malaria Parasite Life Cycle” (Cell Host & Microbe, 2020)

Columns and labels:
[1] = molecular target: T1, P. falciparum aspartic protease, PMV (Plasmodium falciparum, UniProt Q8I6Z5); assay: Peptide cleavage (FRET) assay, PMV; type: biochemical; conditions: calculated from IC50 with Cheng-Prusoff equation
T1 construct: made in house

PMIX = assay: CETSA thermal stability assay, PMIX; type: binding, P. falciparum
Experimental: Lysate CETSA experiments were conducted essentially as described ([Dziekan et al., 2019]). Samples for CETSA studies were prepared using highly synchronous schizont stage P. falciparum 3D7-PMIX_HA and 3D7-PMX_HA parasites. Late-stage parasites (40–44 h post-invasion) were purified by Percoll density gradient and incubated with 1 μM compound 1 (C1) inhibitor (synthesized in-house) ([Hale et al., 2017]). After 2–4 h incubation, mature schizonts were washed once with PBS and pelleted infected red blood cells were lysed in 20 volumes of 0.15% (w/v) saponin in PBS and incubated on ice for 20 min. Parasites were washed 3 times in ice-cold PBS and the final pellet was resuspended in 10 volumes of lysis buffer (0.4% NP-40 (Roche) / PBS) and lysed by three freezing (dry ice/ethanol bath) - thawing cycles. The lysates were cleared by centrifugation at 16,000 g for 30 min and the supernatant containing soluble parasite proteins kept at −80°C until use. […] After blocking the membrane in 5% non-fat milk in TBST (M-TBST), PMIX_HA and PMX_HA were detected with anti-HA mAb 12CA5 (produced in-house) followed by HRP-conjugated a-mouse IgG Abs (Merck). Blots were developed with ECL Western Blotting Substrate (Thermo Fisher Scientific), and the images were generated and analyzed using ChemiDoc Gel Imaging System and Image Lab Software (Bio-Rad).

P. berghei = assay: Peters' 4-day suppressive test for P. berghei infection in mice; type: in vivo, Plasmodium berghei; conditions: 4 days
Experimental: For results shown in Figure 1 A male Swiss mice were infected intraperitoneally (IP) with 1 × 10^6 P. berghei ANKA-parasitised red blood cells withdrawn from a previously infected donor mouse. Test compounds were prepared in a vehicle consisting of 10% DMSO/90% Solutol (5% Solutol® HS-15 in 0.9% saline). […] Peripheral blood samples were taken 24 h after administration of the last dose, and parasitemia was measured by microscopic analysis of Giemsa-stained blood smears. Parasitemia values were averages for 6 mice per group and are expressed as percent parasitemia. For results shown in Figure 4A ‘donor’ female Swiss mice were infected intraperitoneally (IP) with blood stage P. berghei parasites constitutively expressing GFP (P. berghei ANKA GFPcon 259cl2 ([Franke-Fayard et al., 2004]). Three days later, groups of 4 ‘acceptor’ Swiss mice were infected intravenously (IV) with 1 × 10^7 parasitised erythrocytes from the ‘donor’ mice. Two h post infection, experimental mice (4 per cohort) were left untreated (control mice) or treated orally on 4 consecutive days with test drugs formulated in 20% DMSO/60% PG/20% water (v/v/v) or chloroquine dissolved in water. […] Peripheral blood samples were taken 12 h after the last treatment, and parasitemia measured by flow cytometry (proportion of GFP-positive cells in 100,000 recorded events using FACSCalibur, BD) and microscopic analysis of Giemsa-stained blood smears. Parasitemia values were averages for 4 mice per group and are expressed as percent parasitemia.

[2] = system: P. falciparum gametocytes; assay: Standard membrane feeding assay (SMFA), transmission to mosquitoes; type: cell-based, Plasmodium falciparum; conditions: gametocytes treated day 13 to day 17; oocysts counted day 7 after feeding
Experimental: NF54 P. falciparum cultures were synchronized and maintained as described earlier at 5%–10% parasitemia at 4% hematocrit. Once parasitemia reached 8%–10% rings, parasites were diluted to 0.65% parasitemia in desired volume for the gametocyte cultures (10 mL for Petri dish or 6 × 5 mL for 6-well plate). Gametocyte cultures were supplied with gametocyte media consisted of O+ erythrocyte at 4% hematocrit in Roswell Park Memorial Institute (RPMI) 1640 medium supplemented with 26 mM 4-(2-hydroxyethyl)piperazine-1-ethanesulfonic acid (HEPES), 50 μg/mL hypoxanthine, 2.9% NaHCO3, and 10% heat-inactivated human serum. Sexual stage gametocytes were induced by allowing continuous growth cultures without the addition of fresh human erythrocytes ([Vaughan et al., 2012]). […] Stage V gametocytemia was determined by light microscopy examination of methanol fixed, Giemsa stained thin smear under 1,000 magnification. […]
On day 7 after feeding with gametocyte bloodmeal, infected mosquitoes were aspirated into a cup and anesthetized by incubating them at −20°C for 5 min until immobilized. […] Collected midguts were maintained in 1X phosphate buffered saline (PBS, GIBCO) until stained with mercurochrome for 20 min then placed on a glass slide and counted for oocysts by microscopy.

[3] = system: P. falciparum strains resistant to chloroquine, mefloquine, artemisinin, and atovaquone; assay: EC50 for P. falciparum strains resistant to known antimalarials; type: cell-based, Plasmodium falciparum; conditions: Figure S2
Experimental: After 72 h incubation at 37°C each well was fixed at room temperature for 30 min with 50 μL of 0.25% glutaraldehyde (ProSciTech) diluted in PBS. Following centrifugation at 1200 rpm for 1 min, supernatants were discarded and parasites were stained with 50 μL of 5X SYBR Green (Invitrogen) diluted in PBS. 50,000 cells were counted by flow cytometry using a Cell Lab Quanta SC – MPL Flow Cytometer (Beckman Coulter) ([Bacon et al., 2007]). Growth was expressed as a percentage of the parasitemia obtained using a vehicle control. All samples were tested in triplicate. EC50 values were determined using GraphPad Prism.

[4] = molecular target: recombinant PMX protein (rPMX) (Plasmodium falciparum, UniProt Q8IAS0); assay: biochemical
Sequence of recombinant PMX protein (rPMX) (Q8IAS0 222-573): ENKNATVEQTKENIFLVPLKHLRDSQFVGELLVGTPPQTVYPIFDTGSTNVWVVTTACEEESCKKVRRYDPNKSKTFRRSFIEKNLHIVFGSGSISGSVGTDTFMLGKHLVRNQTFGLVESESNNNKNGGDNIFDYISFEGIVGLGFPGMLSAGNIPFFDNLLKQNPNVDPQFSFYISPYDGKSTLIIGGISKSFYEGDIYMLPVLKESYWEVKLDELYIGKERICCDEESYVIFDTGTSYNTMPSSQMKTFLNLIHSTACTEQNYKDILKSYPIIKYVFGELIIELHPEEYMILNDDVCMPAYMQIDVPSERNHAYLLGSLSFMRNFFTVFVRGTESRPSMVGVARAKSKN
Experimental: All wells were backfilled to 200 nL DMSO such that it remains constant across the assay plates (1% final). IC50 values were calculated by Dotmatics 5.3 and Spotfire 7.11.1 software using a nonlinear regression four-parameter fit analysis. The equation used is sigmoidal dose response (variable slope), Y = bottom + (top − bottom)/(1+10((logEC50 − X) × Hill Slope)). Compound Ki values were calculated from the IC50s using the Cheng-Prusoff equation, Ki = IC50/(1 + [S]/Km).
All compound potency assays were conducted in 20 μl total volume. For each assay, 10 μl of recombinant enzymes in respective assay buffers (Table) were dispensed into compound containing assay plates using a Multidrop Combi dispenser and allowed to incubate for 15 min. The reactions were started with a further 10 μl addition of FRET peptide substrates and reactions incubated at 37 °C for various times (Table).Samples were excited at 340 nm and fluorescence emission measured at 492 nm using an Envision fluorescence plate reader (Perkin-Elmer).

T1 sequence (Q8I6Z5 whole entry): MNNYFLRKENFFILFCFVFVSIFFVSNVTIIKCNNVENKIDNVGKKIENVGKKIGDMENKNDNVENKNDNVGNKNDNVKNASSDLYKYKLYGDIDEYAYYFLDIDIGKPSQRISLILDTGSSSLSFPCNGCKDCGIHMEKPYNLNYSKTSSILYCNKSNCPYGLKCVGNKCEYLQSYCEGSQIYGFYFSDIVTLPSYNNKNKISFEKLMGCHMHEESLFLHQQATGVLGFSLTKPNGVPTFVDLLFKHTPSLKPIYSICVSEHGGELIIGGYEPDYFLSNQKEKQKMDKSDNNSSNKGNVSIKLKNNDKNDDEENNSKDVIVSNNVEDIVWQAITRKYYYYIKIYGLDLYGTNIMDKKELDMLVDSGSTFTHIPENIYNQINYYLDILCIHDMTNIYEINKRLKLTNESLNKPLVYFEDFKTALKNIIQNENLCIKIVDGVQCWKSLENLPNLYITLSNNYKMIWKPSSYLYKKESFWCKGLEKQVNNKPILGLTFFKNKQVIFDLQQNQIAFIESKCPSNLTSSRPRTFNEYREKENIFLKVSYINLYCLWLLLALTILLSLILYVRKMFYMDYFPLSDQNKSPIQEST

Compound: CC(NC(=O)c1cccc(C(c2ccccc2)N2C(=N)NC(C)(C(C)C)CC2=O)c1)c1ccccc1 (racemic) [WM4]
- Ki [1]: 19800 ± 500 nM
- effect on thermal stability of PMIX (PMIX): no effect on the thermal stability of PMIX
- in vivo activity against P. berghei infection (P. berghei; intraperitoneal, 20 mpk q.d., Swiss mice): partial efficacy
- oocyst numbers in mosquitoes fed treated gametocytes [2]: no significant reduction in oocyst numbers
- cross-resistance in drug resistant P. falciparum strains [3]: no cross-resistance
- IC50 [4]: 0.81 nM
- Ki [4]: 0.5 ± 0.2 nM

Compound: CCC1(CC)CC(=O)N([C@@H]2CCOc3ccc(C(=O)N[C@H]4CC(C)(C)Oc5ccccc54)cc32)C(=N)N1 [WM382]
- Ki [1]: 13400 ± 620 nM
- effect on thermal stability of PMIX (PMIX): significantly more thermostable
- in vivo efficacy against P. berghei (P. berghei; oral, 20 mg/kg (mpk) b.i.d.): significantly greater in vivo efficacy than WM4 and WM5
- oocyst numbers in mosquitoes fed treated gametocytes [2]: potently inhibited oocyst development
- cross-resistance in drug resistant P. falciparum strains [3]: no cross-resistance
- IC50 [4]: 0.06 nM
- Ki [4]: 0.035 ± 0.008 nM
